Test results reported in patent US20220280602A1, “ANTICANCER AGENT AND METHOD FOR PREPARATION OF POROUS SILICA PARTICLE” (LEMONEX INC., priority 2019, published 2022).

Key:
[1] = test system: MCF-7 cells; assay: Assessment of cytotoxicity by MTT assay; assay type: cell-based; details: 1 day treatment
Protocol: MCF-7 cells were seeded at 10,000 cells/well in 96-well cell culture plates. After 1 day, different concentrations of each particle (4 to 500 μg/mL) were treated with a serum-containing medium in each well for 1 day. Thereafter, the culture was performed for 4 hours while replacing the above medium with a serum-free medium containing 10 μl of MTT assay kit, and the supernatant was aspirated. DMSO was added to each well to dissolve formazan, and reacted for 1 hour. The absorbance was measured at a wavelength of 570 nm, and the cell viability was calculated as a relative value to that of the untreated group.

[2] = test system: MCF-7 cells expressing LC3-GFP; assay: Measurement of the number of GFP-LC3 puncta (autophagy induction); assay type: cell-based; details: MCF-7 expressing LC3-GFP, 6 hours, serum-free medium
Protocol: Using lipofectamine 2000, LC3-GFP plasmid was transfected into MCF-7 cells. Transfected MCF-7 was selected with 800 μg/mL of G418 for 3 months. […] 100,000 MCF-7 cells expressing LC3-GFP were seeded.
40 μg of dye-labeled particles and 4 μg of bec1 peptide were mixed, and the cells were treated for 6 hours in a serum-free medium. Cells were fixed with 4% PFA, and nuclei were stained with DAPI. Images were obtained with a Delta-vision microscope, and the number of GFP-LC3 puncta was measured in 100 cells for each group.

## CGGTNVFNATFHIWHSGQFGT (listed as Homo sapiens) [Bec1 peptide]
[1]
  Cell viability compared to non-treated group: not significantly varied
[2]
  Amount of GFP puncta: very little amount
